# Results taken from article PMC10108266, “Pharmacokinetic characteristics of golidocitinib, a highly selective JAK1 inhibitor, in healthy adult participants” (Frontiers in Immunology, 2023).
# Columns and labels:
# [1] = Safety (TEAEs), JACKPOT2 food effect cohort; format: in vivo, human
# Text: Safety assessments included monitoring of adverse events/serious adverse events, clinical safety laboratory tests (clinical chemistry, hematology, coagulation, and urinalysis tests), 12-lead ECG, vital signs (blood pressure, pulse rate, and respiratory rate), and pulmonary function. All adverse events were coded using the Medical Dictionary for Regulatory Activities (MedDRA), version 22.0. The CTCAE 5.0 was used to define the intensity of AEs.
# [2] = One-month toxicology study in rat; details: in vivo
# [3] = In vitro binding to human plasma; format: in vitro ADME
# [4] = test system: CYP3A4/5 and flavin-containing monooxygenase enzyme (FMO); assay: Enzymatic systems implicated in metabolism; format: in vitro ADME
# Permeability in vitro = format: in vitro ADME
# [5] = set-up: method as in JACKPOT5, NCT04225208; details: concluded from metabolic profile in human, radiolabeled mass balance study in 8 healthy participants ref JACKPOT5, NCT04225208; cited from earlier work
smiles,measurement,setting,value
"COc1nn(C)cc1Nc1nccc(-c2c[nH]c3c(NC(=O)[C@@H](C)N4CCN(C)CC4)cccc23)n1 [golidocitinib, (2R)-N-[3-[2-[(3-Methoxy-1-methyl-pyrazol-4-yl)amino]pyrimidin-4-yl]-1H-indol-7-yl]-2-(4-methylpiperazin-1-yl)propenamide]",Alanine Aminotransferase Increased,"[1]; 50 mg (Fasted), n = 12",1 (8.3%) n (%)
same,Anemia,"[1]; 50 mg (Fasted), n = 12",0 n (%)
same,Aspartate Aminotransferase Increased,"[1]; 50 mg (Fasted), n = 12",0 n (%)
same,Blood Lactate Dehydrogenase Increased,"[1]; 50 mg (Fasted), n = 12",0 n (%)
same,Blood and Lymphatic System Disorders,"[1]; 50 mg (Fasted), n = 12",0 n (%)
same,Cardiac Disorders,"[1]; 50 mg (Fasted), n = 12",1 (8.3%) n (%)
same,Cough,"[1]; 50 mg (Fasted), n = 12",0 n (%)
same,Extrasystoles,"[1]; 50 mg (Fasted), n = 12",1 (8.3%) n (%)
same,Headache,"[1]; 50 mg (Fasted), n = 12",0 n (%)
same,Investigations,"[1]; 50 mg (Fasted), n = 12",2 (16.7%) n (%)
same,Lipase Increased,"[1]; 50 mg (Fasted), n = 12",1 (8.3%) n (%)
same,Nervous System Disorders,"[1]; 50 mg (Fasted), n = 12",0 n (%)
same,"Respiratory, Thoracic and Mediastinal Disorders","[1]; 50 mg (Fasted), n = 12",0 n (%)
same,Rhinorrhea,"[1]; 50 mg (Fasted), n = 12",0 n (%)
same,Subjects with at least one TEAE,"[1]; 50 mg (Fasted), n = 12",3 (25.0%) n (%)
same,Alanine Aminotransferase Increased,"[1]; 50 mg (Fed), n = 11",3 (27.3%) n (%)
same,Anemia,"[1]; 50 mg (Fed), n = 11",1 (9.1%) n (%)
same,Aspartate Aminotransferase Increased,"[1]; 50 mg (Fed), n = 11",2 (18.2%) n (%)
same,Blood Lactate Dehydrogenase Increased,"[1]; 50 mg (Fed), n = 11",1 (9.1%) n (%)
same,Blood and Lymphatic System Disorders,"[1]; 50 mg (Fed), n = 11",1 (9.1%) n (%)
same,Cardiac Disorders,"[1]; 50 mg (Fed), n = 11",0 n (%)
same,Cough,"[1]; 50 mg (Fed), n = 11",1 (9.1%) n (%)
same,Extrasystoles,"[1]; 50 mg (Fed), n = 11",0 n (%)
same,Headache,"[1]; 50 mg (Fed), n = 11",1 (9.1%) n (%)
same,Investigations,"[1]; 50 mg (Fed), n = 11",4 (36.4%) n (%)
same,Lipase Increased,"[1]; 50 mg (Fed), n = 11",1 (9.1%) n (%)
same,Nervous System Disorders,"[1]; 50 mg (Fed), n = 11",1 (9.1%) n (%)
same,"Respiratory, Thoracic and Mediastinal Disorders","[1]; 50 mg (Fed), n = 11",2 (18.2%) n (%)
same,Rhinorrhea,"[1]; 50 mg (Fed), n = 11",2 (18.2%) n (%)
same,Subjects with at least one TEAE,"[1]; 50 mg (Fed), n = 11",7 (63.6%) n (%)
same,discontinuation due to AE,"[1]; 50 mg, fasted state, AE mild, resolved within 2 hours without treatment",one subject was discontinued due to an AE of trigeminy
same,Human equivalent dose of the NOAEL at 1 month,"[2]; body surface area (BSA) conversion, read-out: Human Equivalent Dose (HED) of the NOAEL",0.972 mg/kg
same,NOAEL at 1 month,"[2]; most sensitive species (rat), one-month toxicology study, read-out: No Observed Adverse Effect Level (NOAEL)",6 mg/kg
same,bound to human plasma,"[3]; human plasma of Caucasian and Chinese, in vitro",~ 63%
same,fraction unbound,"[3]; human, plasma, read-out: free fraction in plasma",0.373
same,enzymatic systems implicated in the metabolism,[4],CYP3A4/5 and flavin-containing monooxygenase enzyme (FMO)
same,permeability,Permeability in vitro,high permeability
same,oral bioavailability,[5],> 80%
